{
  "source": "patent US20190307843A1",
  "about": "“SINGLE DOSE METHODS FOR PREVENTING AND TREATING FUNGAL INFECTIONS” (Cidara Therapeutics, Inc., priority 2016, published 2019)",
  "key": {"[1]": {"test_system": "Aspergillus fumigatus (ATCC 13073)", "experiment": "Prophylaxis, neutropenic ICR mouse disseminated aspergillosis model, survival", "conditions": "amphotericin B at 3 mg/kg IP administered one hour after infection"}, "C. auris": {"test_system": "C. auris", "experiment": "Murine model of disseminated candidiasis, C. auris infection, kidney CFU and survival", "format": "in vivo, Candida auris", "conditions": "amphotericin B 0.3 mg/kg IP, 2 doses; Day 14"}, "[2]": {"test_system": "Aspergillus fumigatus (ATCC 13073)", "experiment": "Neutropenic mouse aspergillosis model, survival", "format": "in vivo", "conditions": "AmB 2 mg/kg IP one dose; 10 days"}, "C. parapsilosis": {"test_system": "C. parapsilosis", "experiment": "In vitro susceptibility testing (CLSI M27-A3), C. parapsilosis", "format": "cell-based, Candida parapsilosis", "conditions": "Lodderomyces parapsilosis, 24 h", "experimental": "(§1) Ten clinical Candida strains were used for the in vivo treatment studies, including four C. albicans, three C. glabrata, and three C. parapsilosis strains (Table 15). This group was selected to encompass phenotypic variability in susceptibility to triazoles and echinocandins and based on similar fitness in the animal model as defined by the amount of growth in control animals over 24 h. The organisms were maintained, grown, and quantified on Sabouraud's dextrose agar (SDA) plates.\n(§2) In vitro susceptibility testing. All isolates were tested in accordance with the standards in CLSI document M27-A3. The MICs were determined visually after 24 h of incubation as the lowest concentration of drug that causes a significant diminution (50%) of growth compared to controls. MICs were determined on three separate occasions in duplicate."}, "C. albicans": {"test_system": "C. albicans", "experiment": "In vitro susceptibility testing (CLSI M27-A3), C. albicans", "format": "cell-based", "conditions": "Candida albicans, 24 h", "experimental": "as §1, §2"}, "C. glabrata": {"test_system": "C. glabrata", "experiment": "In vitro susceptibility testing (CLSI M27-A3), C. glabrata", "format": "cell-based, Candida glabrata", "conditions": "Nakaseomyces glabratus, 24 h", "experimental": "as §1, §2"}, "A. fumigatus AF293 [3]": {"test_system": "A. fumigatus AF293", "experiment": "Murine model of pulmonary aspergillosis (Example 19), terminal lung burden", "format": "in vivo, Aspergillus fumigatus", "experimental": "A secondary endpoint for the study was terminal lung tissue burden. Immediately following confirmation of death, carcasses were frozen at −20° C. prior to tissue dissection and processing. The frozen carcasses were thawed at room temperature, the lungs removed and placed into pre-weighed bead-beating tubes containing 2 mL of PBS and subjected to mechanical disruption. Organ homogenates were diluted further in PBS and quantitatively cultured for A. fumigatus onto SABC and incubated at 30° C. for 24-48 hours.\n2. Lung tissue burden data were analysed using the non-parametric Kruskal-Wallis test and if this was statistically significant all pairwise comparisons were analyzed (Conover-Inman)."}, "A. fumigatus AF293 [4]": {"test_system": "A. fumigatus AF293", "experiment": "Pulmonary aspergillosis, prophylaxis, neutropenic ICR mice (Examples 17, 18), survival", "format": "in vivo, Aspergillus fumigatus", "experimental": "Intranasal infection with A. fumigatus AF293 (10^5 CFU/mouse) on Day 0. Prophylaxis CD101 as a single dose (IP; 5, 10, 20 mg/kg) or posaconazole (PO; 2 and 10 mg/kg) 1 day prior to infection. Survival monitored for 10 days.\nIntranasal challenge with A. fumigatus AF293 (10^5 CFU/mouse) was initiated on Day 0 and prophylaxis with CD101 as a single dose (IP; 5, 10, 20 mg/kg) or posaconazole (PO; 2 and 10 mg/kg) was started 1 day prior to infection. Survival was monitored for 10 days."}, "A. fumigatus AF293 [5]": {"test_system": "A. fumigatus AF293", "experiment": "Murine model of pulmonary aspergillosis (Example 19), survival", "conditions": "for Mean Survival / Median Survival: Day 1 pre-infection"}, "[6]": {"conditions": "Posaconazole 10 mg/kg PO Day −1"}, "[7]": {"conditions": "Vehicle vs. Posaconazole 10 mg/kg"}},
  "note": "Values joined by “and” are separate entries in the source; they are usually repeats but may differ in a detail not shown here. Identical values can stand only once. Starred links: 1 amine or outer side, 2 acyl side, 3 side chain; linkers in the order of their positions; H or OH if unused. Positions of bridges follow the written chain, without caps; N, C: chain ends. Non-standard residues stand in square brackets, D forms with d. Residues, ends and D or L forms follow the SMILES beside them. *: point of attachment. pTerphenylCO(4''-OnC5H11) = CCCCCOc1ccc(-c2ccc(-c3ccc(C(=O)*)cc3)cc2)cc1; Orn(4R-OH,5R-OH) = O=C([C@H](C[C@@H](O)[C@@H](O)N[*:3])N[*:1])[*:2]; hTyr(3S-OH,4S-OH) = N[C@H](C(=O)O)[C@H](O)[C@@H](O)c1ccc(O)cc1; Pro(3S-OH,4S-Me) = C[C@H]1CN[C@H](C(=O)O)[C@H]1O; Hyp = O=C(O)[C@@H]1C[C@@H](O)CN1",
  "data": [
    {"smiles": "C[C@@H]1[C@H](O)[C@@H](C)/C=C/C=C/C=C/C=C/C=C/C=C/C=C/[C@H](O[C@@H]2O[C@H](C)[C@@H](O)[C@H](N)[C@@H]2O)C[C@@H]2O[C@](O)(C[C@@H](O)C[C@@H](O)[C@H](O)CC[C@@H](O)C[C@@H](O)CC(=O)O[C@H]1C)C[C@H](O)[C@H]2C(=O)O", "note": "[AmB, amphotericin B, reference compound]", "values": [
      {"measurement": "14-day survival", "setting": "[1]", "value": "significant increase in the 14-day survival"},
      {"measurement": "percent survival at the end of the study", "setting": "C. auris", "value": 30, "unit": "%"},
      {"measurement": "survival vs vehicle", "setting": "[2]", "value": "significantly longer survival than vehicle"}
    ]},
    {"smiles": "CCCCCOc1ccc(-c2ccc(-c3ccc(C(=O)N[C@H]4C[C@@H](O)[C@@H](O)NC(=O)[C@@H]5[C@@H](O)[C@@H](C)CN5C(=O)[C@H]([C@@H](C)O)NC(=O)[C@H]([C@H](O)[C@@H](O)c5ccc(O)cc5)NC(=O)[C@@H]5C[C@@H](O)CN5C(=O)[C@H]([C@@H](C)O)NC4=O)cc3)cc2)cc1", "note": "[Anidulafungin, anidulafungin, reference compound] ({pTerphenylCO(4''-OnC5H11)}-[Orn(4R-OH,5R-OH)]T[Hyp][hTyr(3S-OH,4S-OH)]T[Pro(3S-OH,4S-Me)]; lactam 1-C)", "values": [
      {"measurement": "MIC", "setting": "C. parapsilosis; C. parapsilosis 20423.072", "value": 1, "unit": "µg/mL"},
      {"measurement": "MIC", "setting": "C. parapsilosis; C. parapsilosis 20477.048", "value": 2, "unit": "µg/mL"},
      {"measurement": "MIC", "setting": "C. parapsilosis; C. parapsilosis 20519.069", "value": 4, "unit": "µg/mL"},
      {"measurement": "MIC", "setting": "C. albicans; C. albicans 98-17", "value": 0.03, "unit": "µg/mL"},
      {"measurement": "MIC", "setting": "C. albicans; C. albicans 98-210", "value": 0.015, "unit": "µg/mL"},
      {"measurement": "MIC", "setting": "C. albicans; C. albicans 580", "value": 0.015, "unit": "µg/mL"},
      {"measurement": "MIC", "setting": "C. albicans; C. albicans K-1, 50% growth diminution", "value": 0.015, "unit": "µg/mL"},
      {"measurement": "MIC", "setting": "C. glabrata; C. glabrata 5592", "value": 0.06, "unit": "µg/mL"},
      {"measurement": "MIC", "setting": "C. glabrata; C. glabrata 10956", "value": 1, "unit": "µg/mL"},
      {"measurement": "MIC", "setting": "C. glabrata; C. glabrata 35315", "value": 0.25, "unit": "µg/mL"}
    ]},
    {"smiles": "CC[C@@H]([C@H](C)O)n1ncn(-c2ccc(N3CCN(c4ccc(OC[C@@H]5CO[C@@](Cn6cncn6)(c6ccc(F)cc6F)C5)cc4)CC3)cc2)c1=O", "note": "[Posaconazole, posaconazole]", "values": [
      {"measurement": "Group Geometric mean (lung burden)", "setting": "A. fumigatus AF293 [3]; Posaconazole 2 mg/kg PO Day −1", "value": "1.14 × 10^4 CFU/g"},
      {"measurement": "Log10 Group Geometric mean (lung burden)", "setting": "A. fumigatus AF293 [3]; Posaconazole 2 mg/kg PO Day −1", "value": 4.06, "unit": "CFU/g"},
      {"measurement": "Log10 reduction from vehicle control", "setting": "A. fumigatus AF293 [3]; Posaconazole 2 mg/kg PO Day −1", "value": 0.11, "unit": "CFU/g"},
      {"measurement": "Group Geometric mean (lung burden)", "setting": "A. fumigatus AF293 [3]; [6]", "value": "2.75 × 10^3 CFU/g"},
      {"measurement": "Log10 Group Geometric mean (lung burden)", "setting": "A. fumigatus AF293 [3]; [6]", "value": 3.44, "unit": "CFU/g"},
      {"measurement": "Log10 reduction from vehicle control", "setting": "A. fumigatus AF293 [3]; [6]", "value": 0.73, "unit": "CFU/g"},
      {"measurement": "survival", "setting": "A. fumigatus AF293 [4]; posaconazole 2 mg/kg PO 1 day prior to infection", "value": "no survivors"},
      {"measurement": "survival rate relative to control", "setting": "A. fumigatus AF293 [4]; posaconazole 10 mg/kg PO 1 day prior to infection", "value": "statistically-significant increase in survival rate relative to control"},
      {"measurement": "survival time post infection, range", "setting": "A. fumigatus AF293 [5]; Posaconazole 2 mg/kg PO once", "value": "69 to 114", "unit": "h"},
      {"measurement": "Mean Survival", "setting": "A. fumigatus AF293 [5]; Posaconazole 2 mg/kg PO once", "value": 77.5, "unit": "h"},
      {"measurement": "Median Survival", "setting": "A. fumigatus AF293 [5]; Posaconazole 2 mg/kg PO once", "value": 69.0, "unit": "h"},
      {"measurement": "survival time post infection, range", "setting": "A. fumigatus AF293 [5]; Posaconazole 10 mg/kg PO once", "value": "69 to 240", "unit": "h"},
      {"measurement": "Mean Survival", "setting": "A. fumigatus AF293 [5]; Posaconazole 10 mg/kg PO once", "value": "212 h and 211.5 h"},
      {"measurement": "Median Survival", "setting": "A. fumigatus AF293 [5]; Posaconazole 10 mg/kg PO once", "value": "cannot estimate"},
      {"measurement": "mice surviving to the end of the study", "setting": "A. fumigatus AF293 [5]; Posaconazole 10 mg/kg PO, 6/treatment group, 10 days", "value": 5},
      {"measurement": "Wilcoxon (Peto-Prentice) test, survival", "setting": "A. fumigatus AF293 [5]; Vehicle vs. Posaconazole 2 mg/kg", "value": "P = 0.0391"},
      {"measurement": "Log-Rank test, survival", "setting": "A. fumigatus AF293 [5]; [7]", "value": "P = 0.0182"},
      {"measurement": "Wilcoxon (Peto-Prentice) test, survival", "setting": "A. fumigatus AF293 [5]; [7]", "value": "P = 0.0441"},
      {"measurement": "survival compared to the vehicle mice", "setting": "A. fumigatus AF293 [5]; posaconazole 2 mg/kg once one day pre-infection", "value": "did not show any improvement in survival"},
      {"measurement": "mice surviving to the end of the study", "setting": "A. fumigatus AF293 [5]; posaconazole 10 mg/kg once 1 day pre-infection", "value": "> 80", "unit": "%"}
    ]}
  ]
}
